# pIC50: −log10 of the molar value.
# Target: T1, human calcium receptor (Homo sapiens, UniProt P41180)
# T1 construct: expressed in transfected cells; host or cells: cell strain derived from rat adrenal, co-transformed with luciferase cDNA
# T1 sequence (P41180 20-1078): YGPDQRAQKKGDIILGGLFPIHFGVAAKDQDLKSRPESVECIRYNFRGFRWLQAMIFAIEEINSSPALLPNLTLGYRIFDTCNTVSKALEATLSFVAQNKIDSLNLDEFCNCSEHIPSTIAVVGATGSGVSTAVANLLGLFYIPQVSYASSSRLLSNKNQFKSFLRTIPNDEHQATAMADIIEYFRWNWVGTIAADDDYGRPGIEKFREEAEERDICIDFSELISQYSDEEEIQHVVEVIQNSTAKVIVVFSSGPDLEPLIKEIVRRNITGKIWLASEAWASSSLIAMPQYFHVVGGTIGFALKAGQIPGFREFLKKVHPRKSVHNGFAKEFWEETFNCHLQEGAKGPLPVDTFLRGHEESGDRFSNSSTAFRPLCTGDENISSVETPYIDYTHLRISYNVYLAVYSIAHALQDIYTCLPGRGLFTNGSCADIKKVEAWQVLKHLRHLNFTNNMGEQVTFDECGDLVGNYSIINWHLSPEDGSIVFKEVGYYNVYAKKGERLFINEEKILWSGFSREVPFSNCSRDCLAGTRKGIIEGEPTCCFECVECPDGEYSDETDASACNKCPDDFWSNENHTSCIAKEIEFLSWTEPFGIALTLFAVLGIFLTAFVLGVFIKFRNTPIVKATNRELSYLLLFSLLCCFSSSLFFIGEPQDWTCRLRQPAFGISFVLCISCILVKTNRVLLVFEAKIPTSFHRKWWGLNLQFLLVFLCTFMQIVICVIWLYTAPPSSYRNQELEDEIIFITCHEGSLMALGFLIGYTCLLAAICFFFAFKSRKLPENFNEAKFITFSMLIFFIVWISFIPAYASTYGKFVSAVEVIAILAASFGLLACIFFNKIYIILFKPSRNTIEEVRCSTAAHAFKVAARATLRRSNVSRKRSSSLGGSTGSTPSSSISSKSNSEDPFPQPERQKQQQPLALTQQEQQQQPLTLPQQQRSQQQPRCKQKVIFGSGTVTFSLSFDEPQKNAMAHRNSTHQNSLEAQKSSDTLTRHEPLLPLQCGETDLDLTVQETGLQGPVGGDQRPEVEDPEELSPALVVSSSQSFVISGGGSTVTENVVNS
# Assay: Evaluation of antagonistic action on calcium receptor using reporter gene (luciferase)
# Assay type: cell-based
# Conditions: transformed rat adrenal derived cells, 5 mM calcium chloride, culture 4 hrs, luciferase activity; read-out: Reporter gene assay (IC50, concentration showing 50% inhibitory rate)
# Experimental: Evaluation of Antagonistic Action on Calcium Receptor Using Reporter Gene
# Luciferase cDNA and human calcium receptor cDNA were introduced into a cell strain derived from rat adrenal to transform the cells, and the transformed cells were cultured in a medium (80 μl, F12 medium containing 0.5% dialyzed horse serum and 0.25% dialyzed bovine fetal serum). A dimethyl sulfoxide solution containing a test compound at 0.1-10000 μM was diluted 100-fold with the medium and added to the test compound group at 10 μl per well (dimethyl sulfoxide final concentration 0.1%). In the same manner as in test compound group, dimethyl sulfoxide 100-fold diluted with medium was added to a control group and a blank group. Then, 50 mM calcium chloride-containing medium was added to every well except the blank group at 10 μl per well (final concentration 5 mM). A medium containing 50 mM calcium chloride was added to the control group at 10 μl per well, such that the final calcium concentration of the medium became 5 mM. A medium alone was added to the blank group. After culture for 4 hrs, luciferase substrate was added and the luciferase activity was measured with a photoluminometer. The inhibitory rate (%) was calculated from the obtained measured values according to the following formula.
# Based on the results, the concentration (IC50) showing 50% inhibitory rate was determined. The results are shown in the aforementioned Tables 1 to 60.
row,Compound,pIC50
1,4-[2-[1-[(2R)-3-[[1-(3-fluoro-4-methylphenyl)-2-methylpropan-2-yl]amino]-2-hydroxypropoxy]ethyl]phenoxy]-3-methoxybenzoic acid [Example 2-2],7.68
2,CC(OC[C@H](O)CNC(C)(C)Cc1ccc2ccccc2c1)c1ccccc1Cc1ccc(C(=O)O)cc1 (stereo partly drawn) [2-14′],7.52
3,CC(OC[C@H](O)CNC(C)(C)Cc1ccc2ccccc2c1)c1ccccc1OCc1cccc(C(=O)O)c1 (stereo partly drawn) [2-21′],7.59
4,CC(OC[C@H](O)CNC(C)(C)Cc1ccc2ccccc2c1)c1ccccc1OCc1ccc(C(=O)O)cc1 (stereo partly drawn) [2-22′],7.64
5,"Cc1cc(CC(C)(C)NC[C@@H](O)CO[C@H](C)c2ccccc2-c2ccc(C(=O)O)c(C)c2)ccc1Cl [Example 1-4, 2′-[1-[(2R)-3-[[1-(4-chloro-3-methylphenyl)-2-methylpropan-2-yl]amino]-2-hydroxypropoxy]ethyl]-3-methylbiphenyl-4-carboxylic acid]",7.85
6,"Cc1cc(-c2ccccc2[C@@H](C)OC[C@H](O)CNC(C)(C)Cc2ccc(C)c(F)c2F)ccc1C(=O)O [Example 1-5, 2′-[1-[(2R)-3-[[1-(2,3-difluoro-4-methylphenyl)-2-methylpropan-2-yl]amino]-2-hydroxypropoxy]ethyl]-3-methylbiphenyl-4-carboxylic acid]",8.52
7,"Cc1ccc(CC(C)(C)NC[C@@H](O)CO[C@H](C)c2ccccc2-c2ccc(C(=O)O)c(C)c2)c(F)c1 [Example 1-7, 2′-[1-[(2R)-3-[[1-(2-fluoro-4-methylphenyl)-2-methylpropan-2-yl]amino]-2-hydroxypropoxy]ethyl]-3-methylbiphenyl-4-carboxylic acid]",7.82
8,"CCc1ccc(CC(C)(C)NC[C@@H](O)CO[C@H](C)c2ccccc2-c2ccc(C(=O)O)c(C)c2)cc1F [Example 1-8, 2′-[1-[(2R)-3-[[1-(4-ethyl-3-fluorophenyl)-2-methylpropan-2-yl]amino]-2-hydroxypropoxy]ethyl]-3-methylbiphenyl-4-carboxylic acid]",7.82
9,"Cc1cc(C(=O)O)cc(-c2ccccc2[C@@H](C)OC[C@H](O)CNC(C)(C)Cc2ccc3ccccc3c2)c1 [Example 1-9, 3-methyl-2′-[1-[(2R)-3-[[1-(naphthalen-2-yl)-2-methylpropan-2-yl]amino]-2-hydroxypropoxy]ethyl]biphenyl-5-carboxylic acid]",7.80
10,"COC(=O)c1cc(C(=O)OC)cc(-c2ccccc2[C@@H](C)OC[C@H](O)CNC(C)(C)Cc2ccc3ccccc3c2)c1 [Example 1-10, methyl 2′-[1-[(2R)-3-[[1-(naphthalen-2-yl)-2-methylpropan-2-yl]amino]-2-hydroxypropoxy]ethyl]biphenyl-3,5-dicarboxylate]",7.54
11,"Cc1cc(-c2ccccc2[C@H](OC[C@H](O)CNC(C)(C)Cc2ccc3ccccc3c2)C2CC2)ccc1C(=O)O [Example 1-11, 2′-[(cyclopropyl)[(2R)-3-[[1-(naphthalen-2-yl)-2-methylpropan-2-yl]amino]-2-hydroxypropoxy]methyl]-3-methylbiphenyl-4-carboxylic acid]",7.74

# Continued, values first:
row,pIC50,Compound
1,7.89,"Cc1cc(-c2ccccc2[C@@H](C)OC[C@H](O)CNC(C)(C)Cc2ccc3ccccc3c2)ccc1C(=O)O [Example 1-12, 2′-[1-[(2R)-3-[[1-(naphthalen-2-yl)-2-methylpropan-2-yl]amino]-2-hydroxypropoxy]ethyl]-3-methylbiphenyl-4-carboxylic acid]"
2,7.82,"Cc1cc(-c2ccccc2[C@@H](C)OC[C@H](O)CNC(C)(C)Cc2ccc3ccccc3c2)ccc1C(=O)O [Example 1-13, 2′-[1-[(2R)-3-[[1-(naphthalen-2-yl)-2-methylpropan-2-yl]amino]-2-hydroxypropoxy]ethyl]-3-methylbiphenyl-4-carboxylic acid]"
3,8.22,"Cc1ccc(CC(C)(C)NC[C@@H](O)CO[C@@H](c2ccccc2-c2ccc(C(=O)O)c(C)c2)C2CC2)cc1F [Example 1-14, 2′-[(cyclopropyl)[(2R)-3-[[1-(3-fluoro-4-methylphenyl)-2-methylpropan-2-yl]amino]-2-hydroxypropoxy]methyl]-3-methylbiphenyl-4-carboxylic acid]"
4,7.92,"Cc1ccc(CC(C)(C)NC[C@@H](O)CO[C@H](C)c2ccccc2-c2ccc(C(=O)O)c(C)c2)cc1F [Example 1-15, 2′-[1-[(2R)-3-[[1-(3-fluoro-4-methylphenyl)-2-methylpropan-2-yl]amino]-2-hydroxypropoxy]ethyl]-3-methylbiphenyl-4-carboxylic acid]"
5,7.96,"Cc1ccc(CC(C)(C)NC[C@@H](O)CO[C@H](C)c2ccccc2-c2ccc(C(=O)O)c(C)c2)cc1F [Example 1-16, 2′-[1-[(2R)-3-[[1-(3-fluoro-4-methylphenyl)-2-methylpropan-2-yl]amino]-2-hydroxypropoxy]ethyl]-3-methylbiphenyl-4-carboxylic acid]"
6,7.82,"Cc1cc(C(=O)O)cc(-c2ccccc2[C@@H](C)OC[C@H](O)CNC(C)(C)Cc2ccc(C)c(F)c2)c1 [Example 1-17, 2′-[1-[(2R)-3-[[1-(3-fluoro-4-methylphenyl)-2-methylpropan-2-yl]amino]-2-hydroxypropoxy]ethyl]-3-methylbiphenyl-5-carboxylic acid]"
7,7.80,"Cc1cc(-c2ccccc2C(OC[C@H](O)CNC(C)(C)Cc2ccc(Cl)cc2F)C2CC2)ccc1C(=O)O (stereo partly drawn) [Example 1-18, 2′-[(cyclopropyl)[(2R)-3-[[1-(4-chloro-2-fluorophenyl)-2-methylpropan-2-yl]amino]-2-hydroxypropoxy]methyl]-3-methylbiphenyl-4-carboxylic acid]"
8,8.30,"Cc1cc(-c2ccccc2[C@H](OC[C@H](O)CNC(C)(C)Cc2ccc(Cl)c(F)c2)C2CC2)ccc1C(=O)O [Example 1-19, 2′-[(cyclopropyl)[(2R)-3-[[1-(4-chloro-3-fluorophenyl)-2-methylpropan-2-yl]amino]-2-hydroxypropoxy]methyl]-3-methylbiphenyl-4-carboxylic acid]"
9,7.40,"COc1ccc(CC(C)(C)NC[C@@H](O)CO[C@H](C)c2ccccc2-c2ccc(C(=O)O)c(C)c2)cc1F [Example 1-20, 2′-[1-[(2R)-3-[[1-(3-fluoro-4-methoxyphenyl)-2-methylpropan-2-yl]amino]-2-hydroxypropoxy]ethyl]-3-methylbiphenyl-4-carboxylic acid]"
10,7.89,"Cc1ccc(CC(C)(C)NC[C@@H](O)CO[C@H](C)c2ccccc2-c2ccc(C(=O)O)c(C)c2)cc1C [Example 1-21, 3-methyl-2′-[1-[(2R)-3-[[1-(3,4-dimethylphenyl)-2-methylpropan-2-yl]amino]-2-hydroxypropoxy]ethyl]biphenyl-4-carboxylic acid]"
11,7.92,"Cc1ccc(CC(C)(C)NC[C@@H](O)CO[C@H](C)c2ccccc2-c2ccc(C(=O)O)c(C)c2)cc1 [Example 1-22, 2′-[1-[(2R)-3-[[1-(4-methylphenyl)-2-methylpropan-2-yl]amino]-2-hydroxypropoxy]ethyl]-3-methylbiphenyl-4-carboxylic acid]"
12,7.80,"COc1cc(CC(C)(C)NC[C@@H](O)CO[C@H](C)c2ccccc2-c2ccc(C(=O)O)c(C)c2)ccc1Cl [Example 1-23, 2′-[1-[(2R)-3-[[1-(4-chloro-3-methoxyphenyl)-2-methylpropan-2-yl]amino]-2-hydroxypropoxy]ethyl]-3-methylbiphenyl-4-carboxylic acid]"
13,7.70,"CCc1ccc(CC(C)(C)NC[C@@H](O)CO[C@H](C)c2ccccc2-c2ccc(C(=O)O)c(C)c2)cc1 [Example 1-24, 2′-[1-[(2R)-3-[[1-(4-ethylphenyl)-2-methylpropan-2-yl]amino]-2-hydroxypropoxy]ethyl]-3-methylbiphenyl-4-carboxylic acid]"

# Reference: patent publication US7304174B2, “CaSR antagonist” (Japan Tobacco Inc., priority 2003, dated 2007)
